Source: ChEMBL document CHEMBL1909046, “DrugMatrix in vitro pharmacology data”

Assays:
[1] = biological target: Delta-type opioid receptor (Homo sapiens, UniProt P41143); assay type: cell membranes, HEK293, Membrane; details: hek293; note: in other assays of this panel Not Active means under 50% inhibition at 10 µM
[2] = DRUGMATRIX: Leukotriene, BLT (LTB4) radioligand binding (ligand: [3H]LTB4); assay type: cell membranes, Membrane; details: u-937; Not Active = under 50% inhibition at 10 µM
[3] = DRUGMATRIX: Glutamate, NMDA, Phencyclidine radioligand binding (ligand: [3H] TCP); assay type: cell membranes, Rattus norvegicus, Wistar, Cerebral cortex, Membrane; details: Not Active = under 50% inhibition at 10 µM
[4] = biological target: T1, Amine oxidase [flavin-containing] A (Homo sapiens, UniProt P21397); test: DRUGMATRIX: Monoamine Oxidase MAO-A enzyme inhibition (substrate: Kynuramine); design: species or system BTI-TN-5B1-4; details: bti-tn-5b1-4; Not Active = under 50% inhibition at 10 µM
T1 sequence (P21397 whole entry): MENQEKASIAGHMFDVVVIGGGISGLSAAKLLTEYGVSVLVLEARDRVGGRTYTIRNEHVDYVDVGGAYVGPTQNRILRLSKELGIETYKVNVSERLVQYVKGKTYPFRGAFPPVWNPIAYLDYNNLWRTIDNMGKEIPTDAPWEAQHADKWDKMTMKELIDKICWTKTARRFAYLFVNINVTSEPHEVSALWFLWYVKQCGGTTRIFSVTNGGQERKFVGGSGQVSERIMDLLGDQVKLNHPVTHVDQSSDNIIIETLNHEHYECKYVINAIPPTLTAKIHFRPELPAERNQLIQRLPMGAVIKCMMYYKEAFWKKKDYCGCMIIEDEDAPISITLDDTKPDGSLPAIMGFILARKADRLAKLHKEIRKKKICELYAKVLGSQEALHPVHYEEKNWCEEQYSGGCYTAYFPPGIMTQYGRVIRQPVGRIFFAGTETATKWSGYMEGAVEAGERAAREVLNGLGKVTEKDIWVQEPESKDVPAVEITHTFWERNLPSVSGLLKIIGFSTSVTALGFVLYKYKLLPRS

[5] = biological target: Prostaglandin G/H synthase 1 (Homo sapiens, UniProt P23219); test: biochemical; assay type: tissue-based, Platelet; details: platelet;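 note: inhibition of COX-1 enzyme activity, with arachidonic acid supplied as substrate; in other assays of this panel Not Active means under 50% inhibition at 10 µM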
[6] = biological target: C-C chemokine receptor type 5 (Homo sapiens, UniProt P51681); assay type: cell membranes, Membrane; details: hek293; note: in other assays of this panel Not Active means under 50% inhibition at 10 µM
[7] = biological target: 5-hydroxytryptamine receptor 2B (Homo sapiens, UniProt P41595); assay type: cell membranes, CHO-K1, Membrane; details: cho-k1; note: in other assays of this panel Not Active means under 50% inhibition at 10 µM
Estrogen receptor beta = Estrogen receptor beta (Homo sapiens, UniProt Q92731); details: sf9; note: in other assays of this panel Not Active means under 50% inhibition at 10 µM
Estrogen receptor beta, sequence (Q92731 whole entry): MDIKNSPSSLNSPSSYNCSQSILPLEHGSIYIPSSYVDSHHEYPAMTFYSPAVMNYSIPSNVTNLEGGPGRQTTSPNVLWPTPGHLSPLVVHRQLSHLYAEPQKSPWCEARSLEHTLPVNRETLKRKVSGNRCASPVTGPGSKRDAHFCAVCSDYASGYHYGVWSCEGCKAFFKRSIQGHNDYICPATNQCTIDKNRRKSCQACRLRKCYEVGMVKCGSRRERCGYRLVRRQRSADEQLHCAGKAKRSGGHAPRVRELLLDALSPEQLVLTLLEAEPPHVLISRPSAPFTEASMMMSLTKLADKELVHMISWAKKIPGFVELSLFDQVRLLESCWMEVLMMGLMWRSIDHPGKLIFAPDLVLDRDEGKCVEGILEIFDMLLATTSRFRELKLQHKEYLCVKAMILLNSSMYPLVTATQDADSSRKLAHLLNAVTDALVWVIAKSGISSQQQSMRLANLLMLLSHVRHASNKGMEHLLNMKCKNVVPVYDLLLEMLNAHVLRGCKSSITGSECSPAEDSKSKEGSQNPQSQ

Prostaglandin G/H synthase 1, sequence (P23219 whole entry): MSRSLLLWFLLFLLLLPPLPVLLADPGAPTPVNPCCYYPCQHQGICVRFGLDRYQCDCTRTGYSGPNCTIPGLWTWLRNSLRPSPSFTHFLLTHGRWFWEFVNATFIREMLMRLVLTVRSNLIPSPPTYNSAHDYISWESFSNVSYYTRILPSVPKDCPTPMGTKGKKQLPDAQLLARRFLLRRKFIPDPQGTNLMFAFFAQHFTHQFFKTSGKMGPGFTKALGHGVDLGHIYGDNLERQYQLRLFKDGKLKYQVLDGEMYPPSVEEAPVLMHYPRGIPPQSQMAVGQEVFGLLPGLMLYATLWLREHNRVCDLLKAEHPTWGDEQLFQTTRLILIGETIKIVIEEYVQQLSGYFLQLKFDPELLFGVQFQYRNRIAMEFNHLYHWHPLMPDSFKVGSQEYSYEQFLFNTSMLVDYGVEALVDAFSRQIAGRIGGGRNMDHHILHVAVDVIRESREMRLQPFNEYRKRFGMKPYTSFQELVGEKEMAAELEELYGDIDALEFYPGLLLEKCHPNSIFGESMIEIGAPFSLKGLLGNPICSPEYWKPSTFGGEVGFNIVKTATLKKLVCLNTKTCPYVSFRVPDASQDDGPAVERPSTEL
Delta-type opioid receptor, sequence (P41143 whole entry): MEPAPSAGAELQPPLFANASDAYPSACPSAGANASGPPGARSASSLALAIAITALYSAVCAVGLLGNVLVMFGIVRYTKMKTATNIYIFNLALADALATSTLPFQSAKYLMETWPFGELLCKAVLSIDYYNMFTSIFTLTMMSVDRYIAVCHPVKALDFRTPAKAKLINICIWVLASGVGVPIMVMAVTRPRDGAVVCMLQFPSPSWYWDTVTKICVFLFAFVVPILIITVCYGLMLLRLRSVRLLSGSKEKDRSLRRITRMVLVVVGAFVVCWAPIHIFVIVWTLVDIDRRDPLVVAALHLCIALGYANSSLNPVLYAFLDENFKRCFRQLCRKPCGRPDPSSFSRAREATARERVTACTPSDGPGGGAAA
C-C chemokine receptor type 5, sequence (P51681 whole entry): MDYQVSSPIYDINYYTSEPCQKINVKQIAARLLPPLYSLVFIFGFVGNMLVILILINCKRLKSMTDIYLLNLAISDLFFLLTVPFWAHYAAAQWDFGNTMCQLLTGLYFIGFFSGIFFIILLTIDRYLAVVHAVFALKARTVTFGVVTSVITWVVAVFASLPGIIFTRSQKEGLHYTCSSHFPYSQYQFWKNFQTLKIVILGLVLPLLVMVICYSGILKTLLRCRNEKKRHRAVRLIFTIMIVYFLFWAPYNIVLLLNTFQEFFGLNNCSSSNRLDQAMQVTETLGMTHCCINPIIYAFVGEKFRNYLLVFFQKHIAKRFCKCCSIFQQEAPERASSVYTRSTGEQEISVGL
5-hydroxytryptamine receptor 2B, sequence (P41595 whole entry): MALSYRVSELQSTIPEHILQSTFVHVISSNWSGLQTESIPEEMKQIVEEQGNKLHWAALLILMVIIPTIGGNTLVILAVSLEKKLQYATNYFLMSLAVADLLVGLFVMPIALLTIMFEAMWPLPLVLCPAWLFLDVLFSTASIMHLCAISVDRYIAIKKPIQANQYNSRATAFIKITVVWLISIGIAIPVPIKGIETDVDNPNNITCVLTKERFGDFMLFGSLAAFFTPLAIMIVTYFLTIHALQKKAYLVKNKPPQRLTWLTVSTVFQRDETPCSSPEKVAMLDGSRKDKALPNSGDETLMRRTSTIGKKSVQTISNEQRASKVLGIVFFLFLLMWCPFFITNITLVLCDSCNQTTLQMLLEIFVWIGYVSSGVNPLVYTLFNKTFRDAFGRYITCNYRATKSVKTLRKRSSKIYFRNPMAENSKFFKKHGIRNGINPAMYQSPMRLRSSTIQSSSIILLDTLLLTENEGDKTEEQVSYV

INSULIN HUMAN
Not Active: IC50 [1] | Ki [1] | IC50 [2] | Ki [2] | IC50 [3] | Ki [3] | IC50 [4] | Ki [4] | IC50 [5] | Ki [5] | IC50 [6] | Ki [6] | IC50 [7] | Ki [7] | IC50 (Estrogen receptor beta) | Ki (Estrogen receptor beta)

POLYVINYL ALCOHOL
Not Active: IC50 [1] | Ki [1] | IC50 [2] | Ki [2] | IC50 [3] | Ki [3] | IC50 [4] | Ki [4] | IC50 [5] | Ki [5] | IC50 [6] | Ki [6] | IC50 [7] | Ki [7] | IC50 (Estrogen receptor beta) | Ki (Estrogen receptor beta)
